Results published in patent publication EP2662079A1 (Ordway Research Institute, Inc., priority 2012, dated 2013).
Several values for one entry are separate records, joined by “and”; a condition that tells them apart may be missing. Equal values may be shown once.

Legend:
ERK1/2 = test: MAPK activation (nuclear phosphorylated ERK1/2 immunoblot); assay type: cell-based; settings: for effect on MAPK activation by T4: PD 98059 30 µmol/L or CGP41251 100 nmol/L for 30 minutes, then 10^-7 M T4
Description: ECV304 endothelial cells were cultured in M199 medium with 0.25% hormone-depleted serum 13 for 2 days. […] Nuclear fractions were pre-pared from all samples by the method reported previously (see Li et al., Carcinogenesis 29:62-69 (2008)), the proteins separated by polyacrylamide gel electrophoresis, and transferred to membranes for immunoblotting with antibody to phosphorylated ERK 1/2.

[1] = tested on: chick chorioallantoic membrane (CAM); test: Chorioallantoic membrane (CAM) model of angiogenesis; assay type: in vivo; settings: for Mean Branch points: n=8
Description: In vivo neovascularization was examined by methods described previously. 9-12 Ten-day-old chick embryos were purchased from SPAFAS (Preston, CT) and incubated at 37°C with 55% relative humidity. A hypodermic needle was used to make a small hole in the shell concealing the air sac, and a second hole was made on the broad side of the egg, directly over an avascular portion of the embryonic membrane that was identified by candling. A false air sac was created beneath the second hole by the application of negative pressure at the first hole, causing the CAM to separate from the shell. A window approximately 1.0 cm^2 was cut in the shell over the dropped CAM with a small-crafts grinding wheel (Dremel, division of Emerson Electric Co.), allowing direct access to the underlying CAM. FGF2 (1µg/mL) was used as a standard proangiogenic agent to induce new blood vessel branches on the CAM of 10-day-old embryos. Sterile disks of No. 1 filter paper (Whatman International) were pretreated with 3 mg/mL cortisone acetate and 1 mmol/L PTU and air dried under sterile conditions. Thyroid hormone, hormone analogs, FGF2 or control solvents, and inhibitors were then applied to the disks and the disks allowed to dry. The disks were then suspended in PBS and placed on growing CAMs. […] At 24 hours, the MAPK cascade inhibitor PD 98059 was also added to CAMs topically by means of the filter disks.
After incubation at 37°C with 55% relative humidity for 3 days, the CAM tissue directly beneath each filter disk was resected from control and treated CAM samples. Tissues were washed 3X with PBS, placed in 35-mm Petri dishes (Nalge Nunc), and examined under an SV6 stereomicroscope (Zeiss) at X50 magnification. Digital images of CAM sections exposed to filters were collected using a 3-charge-coupled device color video camera system (Toshiba) and analyzed with Image-Pro software (Media Cybernetics). The number of vessel branch points contained in a circular region equal to the area of each filter disk were counted. One image was counted in each CAM preparation, and findings from 8 to 10 CAM preparations were analyzed for each treatment condition (thyroid hormone or analogs, FGF2, FGF2 antibody, PD 98059). In addition, each experiment was performed 3 times. The resulting angiogenesis index is the mean ± SEM of new branch points.

[2] = tested on: transplantable liver tumor; settings: PTU alone; cited from earlier work
glioblastoma (GBM) = settings: mild hypothyroidism induced by PTU; cited from earlier work
Matrigel plugs = test: Mouse Matrigel model of angiogenesis (plug hemoglobin); assay type: in vivo, mice (C57BL/6NCr); settings: for Inhibition of FGF induced angiogenesis (grade): mouse matrigel model
Description: Normal male mice (C57BL/6NCr) 6-8 weeks of age and weighing ~20 g were purchased from Taconic farm. Animals were housed 4 per cage, in controlled conditions of temperature (20-24 °C); humidity (60-70%) and 12 hrs. light/dark cycle provided with food and water ad libitum. […] Matrigel (BD Bioscience, San Jose CA) was thawed overnight at 4 °C and placed on ice. Aliquots of matrigel were placed into cold polypropylene tubes to prevent the matrigel from solidifying and the angiogenesis promoter added to matrigel with or without agonist. Mice were treated daily. Matrigel was subcutaneously injected as triple injection per animal at 100 µL/animal. At day 14 post plug implant all animals were killed in CO2 chamber and matrigel plugs were collected. […]
The matrigel plugs dissected from the mice were carefully stripped of any remaining peritoneum. The plugs were placed into 0.5 mL tube of ddH2O and homogenized for 5-10 min. […] Absorbance was read with a Microplate Manager ELISA reader at 540 nm. […] Hemoglobin concentration is a reflection of the number of blood vessels in the plugs.

FGF2 cDNA = test: RT-PCR of FGF2 in ECV304 cells; assay type: cell-based; settings: T4 10^-7 mol/L for 6 to 48 hours
Description: RNA (1 µg) was subjected to reverse transcription-polymerase chain reaction (RT-PCR) using the Access RT-PCR system (Promega). Total RNA was reverse transcribed into cDNA at 48°C for 45 minutes, then denatured at 94°C for 2 minutes. Second-strand synthesis and PCR amplification were performed for 40 cycles with denaturation at 94°C for 30 s, annealing at 60°C for 60 s, and extension at 68°C for 120 s, with final ex-tension for 7 minutes at 68°C after completion of all cycles. PCR primers for FGF2 were as follows: FGF2 sense strand 5'-[…]-3' (SEQ ID NO:1), antisense strand 5' […]-3' (SEQ ID NO:2); the length of the PCR product was 734 bp. Primers for GAPDH included the sense strand 5'-[…]-3' (SEQ ID NO:3), and antisense strand 5'-[…]-3' (SEQ ID NO:4); the length of the PCR product was 218 bp. […] The target bands of the gel were quantified using LabImage software (Kapelan), and the value for [FGF2/GAPDH]X10 calculated for each time point.

ECV304 endothelial cells = test: FGF2 release from ECV304 endothelial cells (ELISA); assay type: cell-based
Description: ECV304 endothelial cells were cultured in M199 medium supplemented with 10% fetal bovine serum. […] After 72 hours, the supernatants were harvested and assays for FGF performed without dilution using a commercial ELISA system (R&D Systems) (See Davis et al., Circ Res 94:1500-1506 (2004)).

[3] = cited from earlier work
[4] = FGF 100 ng + compound 10 µg/plug, n= 7-14
[5] = CAM model, FGF (1.25 µg/ml) + compound at 10 µg/plug

Compound: CO[C@@H]1[C@H](N(C)C(=O)c2ccccc2)C[C@H]2O[C@]1(C)n1c3ccccc3c3c4c(c5c6ccccc6n2c5c31)C(=O)NC4 [CGP41251]
- effect on MAPK activation by T4 (ERK1/2): blocked

Compound: COc1cccc(-c2cc(=O)c3ccccc3o2)c1N [PD 98059]
- effect on blood vessel branching caused by T3 and T4 ([1]; 3 µmol/L PD 98059): completely blocked
- effect on MAPK activation by T4 (ERK1/2): inhibited

Compound: CCCc1cc(=O)[nH]c(=S)[nH]1 [PTU, 6-N-propyl-2-thiouracil]
- growth rate versus control neoplasms [2]: no difference in growth rate
- improvement of the duration of survival (glioblastoma (GBM)): 3 fold

Compound: CNC(Cc1cc(I)c(Oc2cc(I)c(O)c(I)c2)c(I)c1)C(=O)[O-].O.O.[K+] (centres unmarked) [T4 analog 10, Potassium 3-[4-(4-hydroxy-3,5-diiodophenoxy)-3,5-diiodophenyl]-2-(methylamino)propanoate dihydrate]
- Hemoglobin (mg/mL)± SEM (Matrigel plugs; 10 µg/matrigel plug, n= 6-7): 0.8 ± 0.2 mg/mL

Compound: CCNC(Cc1cc(I)c(Oc2cc(I)c(O)c(I)c2)c(I)c1)C(=O)O (centres unmarked) [T4 analog 11, 2-(Ethylamino)-3-[4-(4-hydroxy-3,5-diiodophenoxy)-3,5-diiodophenyl]propanoic acid]
- Mean stimulation of angiogenesis (%) (Matrigel plugs; 10 µg/matrigel plug): 45±33%
- Hemoglobin (mg/mL)± SEM (Matrigel plugs; 10 µg/matrigel plug, n= 6-7): 0.6 ± 0.2 mg/mL
- Mean % of stimulation (comparing to PBS) ([1]; CAM model, 0.1 µM): 86.3 ± 9.4%
- Mean Branch points ([1]; CAM model, 0.1 µM, mean ± SEM): 136± 12.8

Compound: CC(C)(C)OC(=O)NC(Cc1cc(I)c(Oc2cc(I)c(OCC3CO3)c(I)c2)c(I)c1)C(=O)OCC1CO1 (centres unmarked) [T4 analog 14, Oxiran-2-ylmethyl-2-(tert-butoxycarbonylamino)-3-(4-(3,5-diiodo-4-(oxiran-2-ylmethoxy)phenoxy)-3,5-diiodophenyl)propanoate]
- Hemoglobin (mg/mL)± SEM (Matrigel plugs; 10 µg/matrigel plug, n= 6-7): 0.3 ± 0.1 mg/mL

Compound: N[C@@H](Cc1cc(I)c(Oc2cc(I)c(O)c(I)c2)c(I)c1)C(=O)O [T4, L-thyroxine]
- Hemoglobin (mg/mL)± SEM (Matrigel plugs; T4 (0.1 µM)): 0.9 ± 0.2 mg/mL
- Mean stimulation of angiogenesis (%) (Matrigel plugs; T4 (0.1 µM)): 100±22%
- Hemoglobin (mg/mL)± SEM (Matrigel plugs; T4 alone, 10 µg/matrigcl plug, n= 25): 1.2 ± 0.4 mg/mL
- increase in abundance of FGF2 cDNA, corrected for GAPDH content (FGF2 cDNA): apparent by 6 hours
- generation of new blood vessels from existing vessels promoted ([1]; 10^7-10-^9 M): two- to three-fold
- Branch pts ± SEM ([1]; CAM assay before conjugation, 0.1 µM): 137.3 ± 8.8
- increase in angiogenesis ([1]; CAM model, 3 experiments (Figure 5A)): 1.5 fold
- Mean % of stimulation (comparing to PBS) ([1]; CAM model, 0.1 µM): 87.7 ± 7%
- Mean Branch points ([1]; CAM model, 0.1 µM, mean ± SEM): 137± 8
- ANGIOGENESIS INDEX ([1]; CAM model, 0.1uM, n = 8 per group): 143.8 ± 7.9
- increase in blood vessel branch formation ([1]; T4 0.1 µmol/L for 3 days): 2.5 fold and 2.3 fold
- appearance of phosphorylated ERK1/2 in cell nuclei (ERK1/2; T4 10^-7 mol/L): ≤ 15 min
- increase of FGF2 concentration in the medium (ECV304 endothelial cells; T4 (0.1 µmol/L) or T3 (0.01 µmol/L) for 3 days): 1.4 fold
- FGF2 (pg/mL/10^6 cells) (ECV304 endothelial cells; T4 (0.1 µmol/L), 3 days): 39.2 ±2.8 pg/mL/10^6 cells
- pKa of the COOH (carboxylic acid) group [3]: ~2.0
- pKa of the NH2 (amino) group [3]: approximately 9.0
- pKa of the PhOH (phenol) group ([3]; fluorescent quenching): 6.2

Compound: CC(C)(C)OC(=O)Cc1cc(I)c(Oc2cc(I)c(O)c(I)c2)c(I)c1 [Tetrac analog 3, tert-Butyl-2-(4-(4-hydroxy-3,5-diiodophenoxy)-3,5-diiodophenyl)acetate]
- Hemoglobin (mg/mL)± SEM (Matrigel plugs; [4]): 0.4 ± 0.1 mg/mL
- Inhibition of FGF induced angiogenesis (grade) (Matrigel plugs): strong (compounds were considered to be strong inhibitors if they achieved more than 50% inhibition as compared to the control)
- Mean % Inhibition [1, 5]: 88±13%
- Mean Branch points [1, 5]: 79±7

Compound: O=C(Cc1cc(I)c(Oc2cc(I)c(O)c(I)c2)c(I)c1)NC1CCCCC1 [Tetrac analog 4, N-cyclohexyl-2-(4-(4-hydroxy-3.5-diiodophenoxy)-3,5-diiodophenyl)acetamide]
- Hemoglobin (mg/mL)± SEM (Matrigel plugs; [4]): 0.2 ± 0.1 mg/mL
- Inhibition of FGF induced angiogenesis (grade) (Matrigel plugs): strong (compounds were considered to be strong inhibitors if they achieved more than 50% inhibition as compared to the control)

Compound: CC(C)[Si](OC(=O)Cc1cc(I)c(Oc2cc(I)c(O)c(I)c2)c(I)c1)(C(C)C)C(C)C [Tetrac analog 5, Triisopropylsilyl-2-(4-(4-hydroxy-3,5-diiodophenoxy)-3,5-diiodophenyl)acetate]
- Hemoglobin (mg/mL)± SEM (Matrigel plugs; [4]): 0.2 ± 0.1 mg/mL
- Inhibition of FGF induced angiogenesis (grade) (Matrigel plugs): strong (compounds were considered to be strong inhibitors if they achieved more than 50% inhibition as compared to the control)

Compound: O=C(Cc1cc(I)c(Oc2cc(I)c(OCC3CO3)c(I)c2)c(I)c1)NC1CCCCC1 (centres unmarked) [Tetrac analog 6, N-cyclohexyl-2-(4-(3,5-diiodo-4-(oxiran-2-ylmethoxy)phenoxy)-3,5-diiodophenyl)acetamide]
- Hemoglobin (mg/mL)± SEM (Matrigel plugs; [4]): 0.7 ± 0.1 mg/mL
- Inhibition of FGF induced angiogenesis (grade) (Matrigel plugs): strong (compounds were considered to be strong inhibitors if they achieved more than 50% inhibition as compared to the control)
